The values below come from US20110224208A1, “NOVEL INHIBITORS OF FLAVIVIRUS REPLICATION” (KATHOLIEKE UNIVERSITEIT LEUVEN, K.U. LEUVEN R&D, priority 2008, published 2011).

Converted amounts (≈) assume the structure as drawn. Some results are limits rather than exact numbers.

Series [1] relates to HCV replicon I389luc-ubi-neo/NS3-3'/5.1. Put plainly: Anti-HCV replicon assay (luciferase activity) in Huh-5-2 cells. Format: cell-based, Hepatitis C virus. To be noted: Hepatitis C virus, Huh-5-2, 72 h, concentration required to inhibit luciferase activity in the replicon system by 50%. Summed up: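 Huh-5-2 cells carrying the luciferase HCV replicon, seeded 24 h, then exposed to serial compound dilutions without G418 for 72 h at 37° C, 5% CO2. Replication read as luciferase luminescence, expressed as percentage of untreated cultures; culture density measured in parallel by MTS.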
(In general: A replicon is a self-replicating genome or part of one, used to study replication in cells.)

Series [2] can be described thus: Proliferation of exponentially growing Huh-5-2 cells (MTS method). Conditions: human, CC50, concentration required to inhibit the proliferation of exponentially growing Huh-5-2 cells by 50%; Table 2. As for the experimental part:
Cells were seeded at a density of 7000 cells per well in 96 well View Plate™ (Packard) in medium containing the same components as described above, except for G418. Cells were allowed to adhere and proliferate for 24 hr. At that time, culture medium was removed and serial dilutions of the test compounds were added in culture medium lacking G418. Interferon alfa 2a (500 IU) was included as a positive control. Plates were further incubated at 37° C. and 5% CO2 for 72 hours. Replication of the HCV replicon in Huh-5 cells results in luciferase activity in the cells. Luciferase activity is measured by adding 50 μl of 1×Glo-lysis buffer (Promega) for 15 minutes followed by 50 ul of the Steady-Glo Luciferase assay reagent (Promega). Luciferase activity is measured with a luminometer and the signal in each individual well is expressed as a percentage of the untreated cultures. […] Instead the density of the culture is measured by means of the MTS method (Promega).
In general terms: Tetrazolium dyes change colour on reduction, which living cells bring about.

A word on the IC50: it is the concentration that gives 50% inhibition. Low readings indicate greater potency, high ones weaker potency. Usually CC50 stands for the concentration that lowers cell viability or growth by half. A low value points to harm at low concentration. Take `COCCN1C(=O)c2ccccc2C(C(=O)Nc2cccc(OC)c2)C1C1CCCC1` (stereo not shown) [C118, 3-cyclopentyl-2-(2-methoxyethyl)-N-(3-methoxyphenyl)-1-oxo-1,2,3,4-tetrahydroisoquinoline-4-carboxamide]: the IC50 in series [1] was 8.32 µg/mL (≈ 19.7 µM). The CC50 at 72 h in series [2] was found to be 98.2 µg/mL (≈ 233 µM).
In series [1], `COCCN1C(=O)c2ccccc2C(C(=O)Nc2cccc(OC)c2)C1C#Cc1ccccc1` (stereo not shown) [C119, 2-(2-methoxyethyl)-N-(3-methoxyphenyl)-1-oxo-3-(phenylethynyl)-1,2,3,4-tetrahydroisoquinoline-4-carboxamide] had an IC50 of 4.63 µg/mL (≈ 10.2 µM). In series [2], this compound displayed a CC50 at 72 h of 94 µg/mL (≈ 207 µM).
For `COCCN1C(=O)c2ccccc2C(C(=O)Nc2cccc(OC)c2)C1C=C(C)C` (stereo not shown) [C120, 2-(2-methoxyethyl)-N-(3-methoxyphenyl)-3-(2-methylprop-1-enyl)-1-oxo-1,2,3,4-tetrahydroisoquinoline-4-carboxamide] the same measures were 3.28 µg/mL (≈ 8.03 µM) and 95.4 µg/mL (≈ 233 µM).
Taken in the same sequence, the figures for `COCCN1C(=O)c2ccccc2C(C(=O)Nc2cccc(N3CCCC3)c2)C1c1cccs1` (stereo not shown) [C122, 2-(2-methoxyethyl)-1-oxo-N-(3-(pyrrolidin-1-yl)phenyl)-3-(thiophen-2-yl)-1,2,3,4-tetrahydroisoquinoline-4-carboxamide] were 0.37 µg/mL (≈ 0.778 µM) and 81.3 µg/mL (≈ 171 µM).
As to `COCCN1C(=O)c2ccccc2C(C(=O)Nc2ccc3c(ccn3C)c2)C1c1cccs1` (stereo not shown) [C123, 2-(2-methoxyethyl)-N-(1-methyl-1H-indol-5-yl)-1-oxo-3-(thiophen-2-yl)-1,2,3,4-tetrahydroisoquinoline-4-carboxamide], in series [1], the IC50 stood at 0.25 µg/mL (≈ 0.544 µM). Also, the CC50 at 72 h in series [2] was found to be 87.9 µg/mL (≈ 191 µM).
Turning to `CCc1nnc(NC(=O)C2c3ccccc3C(=O)N(CCOC)C2c2cccs2)o1` (stereo not shown) [C125, N-(5-ethyl-1,3,4-oxadiazol-2-yl)-2-(2-methoxyethyl)-1-oxo-3-(thiophen-2-yl)-1,2,3,4-tetrahydroisoquinoline-4-carboxamide], in series [1], the half-maximal inhibitory concentration (IC50) turned out to be 7.3 µg/mL (≈ 17.1 µM). In series [2], this compound had a CC50 at 72 h of 53.6 µg/mL (≈ 126 µM).
In series [1], `COCCN1C(=O)c2ccccc2C(C(=O)Nc2cc(C)on2)C1c1cccs1` (stereo not shown) [C126, 2-(2-methoxyethyl)-N-(5-methylisoxazol-3-yl)-1-oxo-3-(thiophen-2-yl)-1,2,3,4-tetrahydroisoquinoline-4-carboxamide] came in with an IC50 of 0.9 µg/mL (≈ 2.19 µM). This compound also returned a CC50 at 72 h in series [2] of 58.1 µg/mL (≈ 141 µM).
For `COCCN1C(=O)c2ccccc2C(C(=O)Nc2cc(C)no2)C1c1cccs1` (stereo not shown) [C127, 2-(2-methoxyethyl)-N-(3-methylisoxazol-5-yl)-1-oxo-3-(thiophen-2-yl)-1,2,3,4-tetrahydroisoquinoline-4-carboxamide] the same measures were 10.3 µg/mL (≈ 25 µM) and 87.2 µg/mL (≈ 212 µM).
`COCCN1C(=O)c2ccccc2C(C(=O)Nc2cc(OC)cc(OC)c2)C1c1cccs1` (stereo not shown) [C130, N-(3,5-dimethoxyphenyl)-2-(2-methoxyethyl)-1-oxo-3-(thiophen-2-yl)-1,2,3,4-tetrahydroisoquinoline-4-carboxamide] returned an IC50 in series [1] of 0.8 µg/mL (≈ 1.71 µM). Further, the 50% cytotoxic concentration (CC50) at 72 h in series [2] turned out to be 91.8 µg/mL (≈ 197 µM).
With `COCCN1C(=O)c2ccccc2C(C(=O)Nc2ccc3[nH]c(C)cc3c2)C1c1cccs1` (stereo not shown) [C131, 2-(2-methoxyethyl)-N-(2-methyl-1H-indol-5-yl)-1-oxo-3-(thiophen-2-yl)-1,2,3,4-tetrahydroisoquinoline-4-carboxamide], 1.12 µg/mL (≈ 2.44 µM) corresponded to half-maximal inhibition in series [1] (IC50). Also, half-maximal cytotoxicity in series [2] (CC50 at 72 h) was put at 69.7 µg/mL (≈ 152 µM).
For the compound `COCCN1C(=O)c2ccccc2C(C(=O)Nc2cccc(OC)c2)C1c1ccc(Cl)s1` (stereo not shown) [C135, 3-(5-chlorothiophen-2-yl)-2-(2-methoxyethyl)-N-(3-methoxyphenyl)-1-oxo-1,2,3,4-tetrahydroisoquinoline-4-carboxamide], half-maximal inhibition in series [1] (IC50) was put at 0.52 µg/mL (≈ 1.1 µM). This compound also registered a CC50 at 72 h in series [2] of 56.7 µg/mL (≈ 120 µM).
`COCCN1C(=O)c2ccccc2C(C(=O)Nc2ccc(C(=O)NCc3ccccc3)cc2)C1c1cccs1` (stereo not shown) [C137, N-(4-(benzylcarbamoyl)phenyl)-2-(2-methoxyethyl)-1-oxo-3-(thiophen-2-yl)-1,2,3,4-tetrahydroisoquinoline-4-carboxamide] registered a concentration for half-maximal inhibition (IC50) in series [1] of 0.032 µg/mL (≈ 0.0593 µM). In series [2], this compound displayed a CC50 at 72 h of 81.1 µg/mL (≈ 150 µM).
For `COCCN1C(=O)c2ccccc2C(C(=O)Nc2ccc(C(=O)N(C)C)cc2)C1c1cccs1` (stereo not shown) [C139, N-(4-(dimethylcarbamoyl)phenyl)-2-(2-methoxyethyl)-1-oxo-3-(thiophen-2-yl)-1,2,3,4-tetrahydroisoquinoline-4-carboxamide], the IC50 in series [1] worked out at 2.74 µg/mL (≈ 5.74 µM). This compound had a CC50 at 72 h in series [2] of 75.3 µg/mL (≈ 158 µM).
Consider `CNC(=O)c1ccc(NC(=O)C2c3ccccc3C(=O)N(CCOC)C2c2cccs2)cc1` (stereo not shown) [C141, 2-(2-methoxyethyl)-N-(4-(methylcarbamoyl)phenyl)-1-oxo-3-(thiophen-2-yl)-1,2,3,4-tetrahydroisoquinoline-4-carboxamide], for which the IC50 in series [1] came out at 0.63 µg/mL (≈ 1.36 µM). For the same compound, in series [2], the CC50 at 72 h is 73.8 µg/mL (≈ 159 µM).
Taken in the same sequence, the figures for `COCCN1C(=O)c2cccc(OC)c2C(C(=O)Nc2cccc(OC)c2)C1c1cccs1` (stereo not shown) [C148, 5-methoxy-2-(2-methoxyethyl)-N-(3-methoxyphenyl)-1-oxo-3-(thiophen-2-yl)-1,2,3,4-tetrahydroisoquinoline-4-carboxamide] were 24.6 µg/mL (≈ 52.6 µM) and 52.1 µg/mL (≈ 112 µM).
`COCCN1C(=O)c2c(ccc(OC)c2F)C(C(=O)Nc2ccc(-n3cccc3)cc2)C1c1cccs1` (stereo not shown) [C150, N-(4-(1H-pyrrol-1-yl)phenyl)-8-fluoro-7-methoxy-2-(2-methoxyethyl)-1-oxo-3-(thiophen-2-yl)-1,2,3,4-tetrahydroisoquinoline-4-carboxamide] came in with an IC50 in series [1] of 0.08 µg/mL (≈ 0.154 µM). In series [2], this compound registered a CC50 at 72 h of more than 125 µg/mL.
`COCCN1C(=O)c2ccccc2C(C(=O)N(C)c2cccc(OC)c2)C1c1cccs1` (stereo not shown) [C151, 2-(2-methoxyethyl)-N-(3-methoxyphenyl)-N-methyl-1-oxo-3-(thiophen-2-yl)-1,2,3,4-tetrahydroisoquinoline-4-carboxamide] showed an IC50 in series [1] of 22.8 µg/mL (≈ 50.7 µM). This compound gave a CC50 at 72 h in series [2] of 52 µg/mL (≈ 115 µM).
`COCCN1C(=O)c2ccccc2C(C(=O)Nc2onc(C)c2C#N)C1c1cccs1` (stereo not shown) [C155, N-(4-cyano-3-methylisoxazol-5-yl)-2-(2-methoxyethyl)-1-oxo-3-(thiophen-2-yl)-1,2,3,4-tetrahydroisoquinoline-4-carboxamide] returned an IC50 in series [1] of 5.65 µg/mL (≈ 12.9 µM). Further, the CC50 at 72 h in series [2] was 76.4 µg/mL (≈ 175 µM).
As to `COCCN1C(=O)c2ccccc2C(C(=O)Nc2cnccn2)C1c1cccs1` (stereo not shown) [C163, 2-(2-methoxyethyl)-1-oxo-N-(pyrazin-2-yl)-3-(thiophen-2-yl)-1,2,3,4-tetrahydroisoquinoline-4-carboxamide], the 50% inhibitory concentration (IC50) in series [1] is 5.23 µg/mL (≈ 12.8 µM). In series [2], half-maximal cytotoxicity (CC50 at 72 h) was put at 81 µg/mL (≈ 198 µM).
For `COCCN1C(=O)c2ccccc2C(C(=O)Nc2cccc(CO)c2)C1c1cccs1` (stereo not shown) [C166, N-(3-(hydroxymethyl)phenyl)-2-(2-methoxyethyl)-1-oxo-3-(thiophen-2-yl)-1,2,3,4-tetrahydroisoquinoline-4-carboxamide] the same measures were 0.38 µg/mL (≈ 0.87 µM) and 64.3 µg/mL (≈ 147 µM).
Taken in the same sequence, the figures for `COCCN1C(=O)c2ccccc2C(C(=O)Nc2ccc(-n3cncn3)cc2)C1c1cccs1` (stereo not shown) [C167, N-(4-(1H-1,2,4-triazol-1-yl)phenyl)-2-(2-methoxyethyl)-1-oxo-3-(thiophen-2-yl)-1,2,3,4-tetrahydroisoquinoline-4-carboxamide] were 0.12 µg/mL (≈ 0.253 µM) and 60 µg/mL (≈ 127 µM).
For `COCCN1C(=O)c2ccccc2C(C(=O)Nc2ccc3ncsc3c2)C1c1cccs1` (stereo not shown) [C170, N-(benzo[d]thiazol-6-yl)-2-(2-methoxyethyl)-1-oxo-3-(thiophen-2-yl)-1,2,3,4-tetrahydroisoquinoline-4-carboxamide] the same measures were 0.12 µg/mL (≈ 0.259 µM) and 37.7 µg/mL (≈ 81.2 µM).
With `COCCN1C(=O)c2ccccc2C(C(=O)Nc2cccc(-n3cccn3)c2)C1c1cccs1` (stereo not shown) [C172, N-(3-(1H-pyrazol-1-yl)phenyl)-2-(2-methoxyethyl)-1-oxo-3-(thiophen-2-yl)-1,2,3,4-tetrahydroisoquinoline-4-carboxamide], in series [1], half-maximal inhibition (IC50) required 0.09 µg/mL (≈ 0.19 µM). The same compound came in with a CC50 at 72 h in series [2] of 14.5 µg/mL (≈ 30.6 µM).
`COCCN1C(=O)c2ccccc2C(C(=O)Nc2ccc(-c3cccnc3)cc2)C1c1cccs1` (stereo not shown) [C173, 2-(2-methoxyethyl)-1-oxo-N-(4-(pyridin-3-yl)phenyl)-3-(thiophen-2-yl)-1,2,3,4-tetrahydroisoquinoline-4-carboxamide] gave an IC50 in series [1] of 0.09 µg/mL (≈ 0.186 µM). In addition, the half-maximal cytotoxic concentration (CC50) at 72 h in series [2] was 9.59 µg/mL (≈ 19.8 µM).
In series [1], `COCCN1C(=O)c2ccccc2C(C(=O)Nc2ccc(Cn3cccn3)cc2)C1c1cccs1` (stereo not shown) [C174, N-(4-((1H-pyrazol-1-yl)methyl)phenyl)-2-(2-methoxyethyl)-1-oxo-3-(thiophen-2-yl)-1,2,3,4-tetrahydroisoquinoline-4-carboxamide] gave an IC50 of 0.15 µg/mL (≈ 0.308 µM). The compound also had a cytotoxic concentration (CC50) at 72 h in series [2] of 43 µg/mL (≈ 88.3 µM).
Compound `COCCN1C(=O)c2ccccc2C(C(=O)Nc2nc(C(C)(C)C)cs2)C1c1cccs1` (stereo not shown) [C177, N-(4-tert-butylthiazol-2-yl)-2-(2-methoxyethyl)-1-oxo-3-(thiophen-2-yl)-1,2,3,4-tetrahydroisoquinoline-4-carboxamide] displayed an IC50 in series [1] of 0.5 µg/mL (≈ 1.06 µM). In series [2], the CC50 at 72 h was found to be 3.16 µg/mL (≈ 6.73 µM).
